Test results as given in patent publication US10597388B2, “Pyridazinone herbicides” (FMC CORPORATION, priority 2014, dated 2020).

Tests used:
Type in all cases: in vivo
[1] = tested on: ragweed (common ragweed, Ambrosia elatior); assay: Test C greenhouse herbicide test, pre- and postemergence
In short: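 Visual ratings on a 0 to 100 scale (0 = no effect, 100 = complete control) versus untreated controls, scored 13–15 d after treatment. Soil-applied preemergence to seeded loam/sand; foliar postemergence to 1- to 4-leaf plants (2–18 cm) in peat-vermiculite mix; compounds formulated in solvent plus surfactant.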

kochia (Kochia scoparia) = assay: Test C greenhouse herbicide test, postemergence
In short: (§1)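 Seedlings are raised in pots of peat moss–vermiculite medium with starter nutrients, then receive postemergence test chemical at the 1- to 4-leaf stage. They are kept in the greenhouse 13 to 15 d and scored visually versus controls, 0 meaning no effect and 100 complete control.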

[2] = tested on: oat, wild (wild oat, Avena fatua); assay: Test C greenhouse herbicide test, postemergence
In short: as §1

[3] = tested on: chickweed (common chickweed, Stellaria media); assay: Test C greenhouse herbicide test, postemergence
In short: as §1

[4] = tested on: ducksalad (Heteranthera limosa); assay: Test B flooded paddy test; details: 250 g ai/ha, Flood; visual rating on scale of 0 to 100 where 0 is no effect and 100 is complete control; 13 to 15 d after treatment
In short: (§2)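 Plants grown to the 2-leaf stage. At treatment, pots were flooded to 3 cm above the soil, compound was applied directly to the paddy water, and that depth was held throughout. After 13 to 15 d in the greenhouse, response was rated visually against controls on a 0 (no effect) to 100 (complete control) scale.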

[5] = tested on: sedge, umbrella (small-flower umbrella sedge, Cyperus difformis); assay: Test B flooded paddy test; details: 250 g ai/ha, Flood; visual rating on scale of 0 to 100 where 0 is no effect and 100 is complete control; 13 to 15 d after treatment
In short: as §2

[6] = tested on: barnyardgrass (Echinochloa crus-galli); assay: Test B flooded paddy test; details: 250 g ai/ha, Flood; visual rating on scale of 0 to 100 where 0 is no effect and 100 is complete control; 13 to 15 d after treatment
In short: as §2

rice (Oryza sativa) = assay: Test B flooded paddy test; details: 250 g ai/ha, Flood; visual rating on scale of 0 to 100 where 0 is no effect and 100 is complete control; 13 to 15 d after treatment
In short: as §2

[7] = Postemergence, 31 g ai/ha, scale 0 to 100 (0 no effect, 100 complete control)
[8] = Postemergence, 62 g ai/ha, 0 to 100 scale (0 no effect, 100 complete control)
[9] = Postemergence, 250 g ai/ha, scale 0 to 100, 0 no effect, 100 complete control, 13 to 15 d
[10] = Preemergence, 31 g ai/ha, scale 0 to 100, 0 is no effect, 100 is complete control
[11] = Preemergence, 62 g ai/ha, scale 0 to 100, 0 is no effect, 100 is complete control
[12] = Preemergence, 125 g ai/ha, scale 0 to 100, 0 is no effect, 100 is complete control
[13] = Preemergence, 250 g ai/ha, scale 0 to 100 (0 no effect, 100 complete control)
[14] = postemergence, 125 g ai/ha, scale 0 to 100, 0 no effect, 100 complete control
[15] = Postemergence, 31 g ai/ha, 0 to 100 scale (0 no effect, 100 complete control)
[16] = Postemergence, 125 g ai/ha, scale 0 to 100, 0 is no effect, 100 is complete control
[17] = postemergence, 62 g ai/ha, scale 0 to 100, 0 no effect, 100 complete control

| Structure (SMILES) | Plant response rating, Ragweed [1, 9] | Plant response rating, Ragweed [1, 10] | Plant response rating, Ragweed [1, 11] | Plant response rating, Ragweed [1, 12] | Ragweed plant response rating [1, 13] | Plant response rating, Kochia (kochia (Kochia scoparia); [9]) | Plant response rating, Oat, Wild [2, 9] | Plant response rating, Chickweed [3, 9] | Plant response rating, Ducksalad [4] | Plant response rating, Sedge, Umbrella [5] | Plant response rating, Barnyardgrass [6] | Plant response rating, Rice (rice (Oryza sativa)) | Ragweed plant response rating [1, 15] | Plant response rating, Ragweed [1, 16] | Ragweed plant response rating [1, 17] | Kochia plant response rating (kochia (Kochia scoparia); [15]) | Plant response rating, Kochia (kochia (Kochia scoparia); [16]) | Kochia plant response rating (kochia (Kochia scoparia); [17]) | Oat, Wild plant response rating [2, 15] | Plant response rating, Oat, Wild [2, 16] | also measured |
| --- | --- | --- | --- | --- | --- | --- | --- | --- | --- | --- | --- | --- | --- | --- | --- | --- | --- | --- | --- | --- | --- |
| Cc1cc(C)c2ccccc2c1-c1c(OS(C)(=O)=O)c(C)nn(C)c1=O [Compound 154] | 90 | 80 | 95 | 90 | 95 | 80 | 90 | 95 | 60 | 80 | 50 | 50 |  |  |  |  |  |  |  |  | Plant response rating, Ragweed [1, 7]: 70; Ragweed plant response rating [1, 8]: 75; Ragweed plant response rating [1, 14]: 85; Plant response rating, Kochia (kochia (Kochia scoparia); [7]): 50; Kochia plant response rating (kochia (Kochia scoparia); [8]): 50; Kochia plant response rating (kochia (Kochia scoparia); [14]): 60; Plant response rating, Oat, Wild [2, 7]: 55; Oat, Wild plant response rating [2, 8]: 80; Oat, Wild plant response rating [2, 14]: 90; Plant response rating, Chickweed [3, 7]: 90; Chickweed plant response rating [3, 8]: 90; Chickweed plant response rating [3, 14]: 90 |
| Cc1ccc2ccc(C)c(-c3c(O)c(C)nn(C)c3=O)c2c1 [Compound 60] | 100 | 80 | 90 | 95 | 95 | 100 | 95 | 98 | 20 | 30 | 35 | 35 | 85 | 98 | 90 | 90 | 100 | 90 | 85 | 95 | Oat, Wild plant response rating [2, 17]: 95; Chickweed plant response rating [3, 15]: 90; Plant response rating, Chickweed [3, 16]: 95; Chickweed plant response rating [3, 17]: 95 |
| COc1nn(C)c(=O)c(-c2c(C)ccc3ccccc23)c1OC(=O)OC(C)C [Compound 36] | 95 | 85 | 90 | 95 | 95 | 90 | 85 | 95 | 30 | 70 | 0 | 20 | 90 | 95 | 90 | 50 | 55 | 55 | 50 | 65 | Oat, Wild plant response rating [2, 17]: 60; Chickweed plant response rating [3, 15]: 80; Plant response rating, Chickweed [3, 16]: 95; Chickweed plant response rating [3, 17]: 95 |
